This note sets out measurements from US9925235B2, “Tilapia piscidins for use in enhancement of wound healing” (Academia Sinica, priority 2015, dated 2018).

Data set [1] concerns Hs-68 human foreskin fibroblast cell line. It is filed as cell-based. As for the experimental part: An MRSA strain commonly associated with human wound infections was selected to generate a polymicrobial solution. The MRSA strain is a clinical isolate from stool obtained from Taipei City Hospital (Heping Fuyou branch). The strain was identified by routine laboratory methods and stored in 20% (vol/vol) glycerol at −80° C. Tryptic Soy Broth (TSB) was used as the culture medium. HaCaT human keratinocyte cell line and Hs-68 human foreskin fibroblast cell line were grown in DMEM containing 10% (v/v) FBS, 0.37% (w/v) NaHCO3, penicillin (100 unit/ml), streptomycin (100 μg/ml), 0.1 mM NEAA, and 1 mM sodium pyruvate at 37° C. in a humidified incubator under 5% CO2 and 95% air. The cells were harvested at ca. 90% confluence (ca. 10^6 cells/10-cm dish). Balb/c female mice were used for the experiments. All mice were housed in cages under specific pathogen-free conditions, and given water and standard laboratory chow ad libitum during the experiments. All animal handing procedures were in accordance with National Taiwan Ocean University (NTOU) guidelines. All procedures were approved by the Animal Care and Use Committee of NTOU.
Cells were cultured at a density of 5×10^4 cells per well in flat-bottomed 96-well plates. […] Cell proliferation was measured by neutral red, LDH, and MTT assay, according to the manufacturer's instructions. […]

Data set [2] has as its system Keratin 10, keratin 17 gene expression in HaCaT cells. Nature of the data set: Real-time PCR of keratin 10 and keratin 17 in HaCaT cells. As to conditions: TP4 6.25 μg/ml, 48 h. It is filed as cell-based, human. As for the experimental part:
In FIG. 6A-6C, HaCaT cells were treated with different doses of TP4 for 48 h, and cell viability was measured by neutral red, LDH, and MTT assays (r=3; n=6). In FIGS. 6D and 6E, thee experimental HaCaT cells were treated with TP4 (6.25 μg/ml), while control cells were untreated. After 48 h, total RNA was isolated and reverse transcribed for use in real-time qPCR analysis. Six replicate wells were analyzed per assay. Results represent the mean±SEM from three independent experiments. (Student's t-test: *, P<0.05; **, P<0.01, n.s.: not significant).
Total RNA was isolated from HaCaT and Hs-68 cells, and purified using a Qiagen RNeasy kit. Reverse transcription into cDNA was performed with an iScript cDNA Synthesis Kit (BIO-RAD, USA) according to the manufacturer's recommendations. […] Quantitative PCR was performed under the following conditions: 40 cycles of 1 min at 95° C., 30 s at 55° C., and 1 min at 72° C. The threshold cycle number (Ct) was calculated with BIO-RAD software. Relative transcript quantities were calculated using the ΔCt method with GAPDH as the internal reference gene. ΔCt is the difference in the threshold cycles of messenger (m)RNA for selected genes relative to those of GAPDH mRNA. […]
Background: Real-time PCR tracks product formation cycle by cycle.

The subject of the next data set is MRSA. Nature of the data set: Mouse model of MRSA sepsis, TP4. In kind it is in vivo, Balb/c mice. How it is done:
Female Balb/c mice (6-8 weeks old) were injected intraperitoneally with 10^6 CFU MRSA per mouse. Ten minutes after MRSA injection, mice were injected intraperitoneally with vancomycin (0.01 mg/g mouse body weight), methicillin (0.01 mg/g mouse body weight), or TP4 (0.005 mg/g mouse body weight). In a second set of experiments, mice were given intraperitoneal injections of TP4 (0.005 mg/g mouse body weight) at 10, 60, 120, or 180 min after MRSA injection. Survival rate and status were recorded every 24 h for up to 192 h. To examine bacterial dissemination, mice were sacrificed at 48 h after injection with antibiotics or TP4, and the bacterial numbers in blood, peritoneum, spleen, liver, and mesenteric lymph nodes were recorded. Colony counts from the diluted bacterial solutions were expressed relative to those at the start of treatment. These experiments consisted of four groups, and each group contained 10 mice.
Infected mice were untreated, or treated with TP4, methicillin, or vancomycin via i.p. injection. Bacterial numbers in blood, peritoneum, spleen, liver, and mesenteric lymph nodes were subsequently recorded. Colony counts from the diluted bacterial solutions are expressed relative to those at the start of treatment. Each value represents the mean value from three determinations±standard deviation (SD).

Where [3] appears, read: 48 hours after the last treatment.

For “Tilapia piscidin 4 (FIHHIIGGLFSAGKAIHRLIRRRRR; listed as Oreochromis niloticus) [TP4]”, the cytotoxic effects entry in data set [1] is recorded as “did not exhibit cytotoxic effects”. In addition, in data set [1] (Hs-68 cells, low doses, 48 h), the cell proliferation entry is on record as “significantly increased”. For the same substance, in data set [2], the “gene expression of keratin 10” value was “significantly increased” and the “gene expression of keratin 17” value is listed as “did not affect”. In the data set on MRSA (setting [3]), the “Mean ± SD count, Blood” value is given as 0^A CFU/mL; the “Mean ± SD count, Liver” value is listed as 2.4 × 10^4 ± 1 × 10^6A CFU/mL; the “Mean ± SD count, Mesenteric lymph nodes” value is on record as 6 × 10^5 ± 1 × 10^5A CFU/mL; the “Mean ± SD count, Peritoneum” value was 1 × 10^6 ± 1 × 10^4A CFU/mL. For the same substance, the “Mean ± SD count, Spleen” value with MRSA (setting [3]) is listed as 3 × 10^6 ± 1.2 × 10^6A CFU/mL. This substance also yielded a survival rate in the data set on MRSA (8 days after MRSA infection, i.p. 10 min after MRSA, TP4 0.005 mg/g, vancomycin and methicillin 0.01 mg/g) of 100%. Also, in the data set with MRSA (P<0.05), the “bacterial burden in organs vs untreated controls” value was “significantly reduced the bacterial burden in all examined organs”. The substance also had a survival rate in the data set with MRSA (TP4 0.005 mg/g injected 10 min after MRSA) of 100%. Moreover, the survival rate in the data set on MRSA (TP4 0.005 mg/g injected 60 min after MRSA) stood at 80%. The same substance registered a survival rate with MRSA (TP4 0.005 mg/g injected 120 min after MRSA) of 60%. The substance further returned a survival rate in the data set with MRSA (TP4 0.005 mg/g injected 180 min after MRSA) of 50%. Moreover, the “% lethality” value with MRSA (monitored for 2 day after injection, MRSA 10^6 CFU i.p.) is 0^A %.
